Measurements published in US9029076B2, “Tissue preservation and fixation method” (George Mason Research Foundation, Inc., priority 2006, dated 2015).

What was measured:
p38 T180/182 = experiment: RPA phosphoprotein level after 24 h storage of tumor needle samples in preservatives; conditions: 24 h in preservative at 4° C., relative normalized RPA intensity
Procedure: (§1) The RPA format, originated by the present inventors and collaborators (see, e.g., Paweletz et al. (2001) Oncogene 20, 1981-1989), immobilizes an individual test sample in a miniature dilution curve such that an array contains hundreds of different patient samples, treatments, or time points. In the RPA format, each array is incubated with one detection protein (e.g. anti-peptide antibody), and a single analyte endpoint is measured and directly compared across multiple samples. Briefly, the lysates are printed on glass backed nitrocellulose array slides (FAST Slides Whatman, Florham Park, N.J. or ONCYTE slides Grace BioLabs, Bend, Oreg.) using a robotic array printing device (GMS 417 arrayer (Affymetrix, Santa Clara, Calif. or Aushon 2470, Aushon Biosystems, Burlington, Mass. equipped with 125-500 μm pins). Each lysate is printed in a dilution curve representing neat, 1:2, 1:4, 1:8, 1:16 and negative control dilutions. The slides are stored with desiccant (Drierite, W. A. Hammond, Xenia, Ohio) at −20° C. prior to immunostaining.
(§2) Immunostaining is performed on an automated slide stainer per manufacturer's instructions (Autostainer CSA kit, Dako, Carpinteria, Calif.). Each slide is incubated with a single primary antibody at room temperature for 30 minutes. Polyclonal primary antibodies can be, e.g.: GSK3α/β Tyr279/216 (Invitrogen-Biosource, Carlsbad, Calif.), BCL-2, HIF-1α (BD, Franklin Lakes, N.J.), 4EBP1, FKHR ser256, eIF4E, eIF4E ser209, eIF4G, eIF4G ser1108, IGFR-β, IRS-1, IRS-2, IRS-1 ser612, SGK, Bak, Bax, BAD, BAD ser112, BAD ser136, BAD ser155, B-Raf, mTOR, mTOR ser2448, p70S6 Thr389, p70S6 kinase, p70S6 ser371, S6 kinase ser240/244, Akt, Akt ser473, Akt Thr308, 4EBP1 ser65, 4EBP1 ser70, and 4EBP1 Thr37/46 (Cell Signaling Technology, Danvers, Mass.). A negative control slide is incubated with antibody diluent. Secondary antibody can be goat anti-rabbit IgG H+L (1:5000) (Vector Labs, Burlingame, Calif.).
(§3) Each array is scanned, spot intensity analyzed, data normalized, and a standardized, single data value can be generated for each sample on the array (Image Quant v5.2, GE Healthcare, Piscataway, N.J.) or MicroVigene v2.8, Vigene Tech, Billerica, Mass.). Spot intensity is integrated over a fixed area. Local area background intensity is calculated for each spot with the unprinted adjacent slide background. […] The Ward method for two-way hierarchical clustering can be performed using JMP v5.0 (SAS Institute, Cary N.C.). Wilcoxon two-sample rank sum test can be used to compare values between two groups. P values less than 0.05 are considered significant. When one cannot assume a normal distribution of the variables, non-parametric methods are used. Kaplan-Meier (log-rank) survival estimates for univariate survival analysis can be used.
(§4) Briefly, tumor tissues from gastrinoma/liver, mesothelioma and parathyroid tumors were sampled by five needle passes and placed into the preservatives listed in Table 5. […] Immediate lysis and denaturation of the cellular proteins were accomplished by standard Pierce Tissue Protein Extraction Buffer (T-PER), with additional SDS, denaturing reagents, and detergents. The cell samples were stored 24 h in the listed preservatives at 4° C. and then the listed phosphoprotein endpoints were measured. […] Some values dropped to zero while others are markedly elevated compared to the freshly lysed cell baseline. […] They were unable to stabilize the phosphorylation state of key signal proteins over a storage period of 24 hours, which is a typical time delay for cell or tissue shipment. Numbers in the table are relative normalized intensity values using the RPA technology described herein.

EGFR Y1148 = experiment: as above; conditions: 24 h in preservative at 4° C., relative normalized RPA intensity
Procedure: as §1, §2, §3, §4

AKT Thr308 = experiment: as above; conditions: 24 h in preservative at 4° C., relative normalized RPA intensity
Procedure: as §1, §2, §3, §4

ERK T202/Y204 = experiment: as above; conditions: 24 h in preservative at 4° C., relative normalized RPA intensity
Procedure: as §1, §2, §3, §4

IKappa-Ba ser32 = experiment: as above; conditions: 24 h in preservative at 4° C., relative normalized RPA intensity
Procedure: as §1, §2, §3, §4

AKT ser473 = experiment: as above; conditions: 24 h in preservative at 4° C., relative normalized RPA intensity
Procedure: as §1, §2, §3, §4

CREB ser133 = experiment: as above; conditions: 24 h in preservative at 4° C., relative normalized RPA intensity
Procedure: as §1, §2, §3, §4

CC3 Asp175 = experiment: as above; conditions: 24 h in preservative at 4° C., relative normalized RPA intensity
Procedure: as §1, §2, §3, §4

IRS-1 ser612 = experiment: as above; conditions: 24 h in preservative at 4° C., relative normalized RPA intensity
Procedure: as §1, §2, §3, §4

GSK3ab ser21/9 = experiment: as above; conditions: 24 h in preservative at 4° C., relative normalized RPA intensity
Procedure: as §1, §2, §3, §4

phosphoproteins [1] = conditions: for phosphoprotein endpoints, room temperature shipping in fixative versus snap frozen: real time, room temperature shipping conditions, FIGS. 6A, 6B and 7
phosphoproteins [2] = experiment: Overall phosphoprotein preservation of FNA / tumor needle samples stored 24 h at 4° C.; conditions: compared to directly lysed cell baseline
Procedure: Fine Needle Aspirate (FNA) samples were stored for 24 hours at 4° C. in each of the chemicals/chemical solutions. The cellular samples were further processed for reverse phase protein microarray analysis. […] Each set of 4 horizontal spots by 2 vertical spots represent an original and its replicate sample, printed on the array in two-fold dilutions, for each FNA sample. The dilution series represents undiluted, 1:2, 1:4 and 1:8 dilutions of each sample.
A variety of types of tumor tissues were incubated in a series of conventional preservatives to determine if the preservatives were able to stabilize selected phosphoproteins.

[3] = Gastrinoma/liver tumor, Lysis Buffer = frozen immediately after lysis
[4] = Parathyroid tumor, Lysis Buffer = frozen immediately after lysis

`CO` [Methanol] was tested, and the “p38 T180/182 Normalized data” value (p38 T180/182; [3]) was 76.09, the “p38 T180/182 Normalized data” value (p38 T180/182; Mesothelioma) was 53.36 and the “p38 T180/182 Normalized data” value (p38 T180/182; [4]) was 34.09. The “EGFR Y1148 Normalized data” value (EGFR Y1148; [3]) was 81.50, the “EGFR Y1148 Normalized data” value (EGFR Y1148; Mesothelioma) was 63.00 and the “EGFR Y1148 Normalized data” value (EGFR Y1148; [4]) was 53.41. For the same compound, the “AKT Thr308 Normalized data” value (AKT Thr308; [3]) was 43.73, the “AKT Thr308 Normalized data” value (AKT Thr308; Mesothelioma) was 32.75 and the “AKT Thr308 Normalized data” value (AKT Thr308; [4]) was 28.31. For the same compound, the “ERK T202/Y204 Normalized data” value (ERK T202/Y204; [3]) was 46.47, the “ERK T202/Y204 Normalized data” value (ERK T202/Y204; Mesothelioma) was 18.87 and the “ERK T202/Y204 Normalized data” value (ERK T202/Y204; [4]) was 28.54. The “IKappa-Ba ser32 Normalized data” value (IKappa-Ba ser32; [3]) was 54.98, the “IKappa-Ba ser32 Normalized data” value (IKappa-Ba ser32; Mesothelioma) was 41.23 and the “IKappa-Ba ser32 Normalized data” value (IKappa-Ba ser32; [4]) was 36.25. The “AKT ser473 Normalized data” value (AKT ser473; [3]) was 4.15, the “AKT ser473 Normalized data” value (AKT ser473; Mesothelioma) was 11.14 and the “AKT ser473 Normalized data” value (AKT ser473; [4]) was 11.06. For the same compound, the “CREBser133 Normalized data” value (CREB ser133; [3]) was 131.23, the “CREBser133 Normalized data” value (CREB ser133; Mesothelioma) was 114.37 and the “CREBser133 Normalized data” value (CREB ser133; [4]) was 65.44. The “CC3 Asp175 Normalized data” value (CC3 Asp175; [3]) was 37.64, the “CC3 Asp175 Normalized data” value (CC3 Asp175; Mesothelioma) was 16.93 and the “CC3 Asp175 Normalized data” value (CC3 Asp175; [4]) was 14.80. For the same compound, the “IRS-1 ser612 Normalized data” value (IRS-1 ser612; [3]) was 65.97, the “IRS-1 ser612 Normalized data” value (IRS-1 ser612; Mesothelioma) was 37.33 and the “IRS-1 ser612 Normalized data” value (IRS-1 ser612; [4]) was 23.51. The “GSK3ab ser21/9 Normalized data” value (GSK3ab ser21/9; [3]) was 33.59, the “GSK3ab ser21/9 Normalized data” value (GSK3ab ser21/9; Mesothelioma) was 66.02 and the “GSK3ab ser21/9 Normalized data” value (GSK3ab ser21/9; [4]) was 53.28.
In the case of `CCO` [ethanol:water, ethanol], the “phosphoprotein endpoints, room temperature shipping in fixative versus snap frozen” value (phosphoproteins [1]) is reported as “equivalence of the two methods”.
With `CCO` [ethanol] the “preservation of phosphoproteins overall” value (phosphoproteins [2]) was “do not adequately preserve the phosphoproteins”.
With `CO` [methanol: water, methanol] the “RPA spot intensities, fixed versus frozen tissue” value (phosphoproteins [1]; FIG. 6A) was “equivalent spot intensities” and the “phosphoprotein endpoints, room temperature shipping in fixative versus snap frozen” value (phosphoproteins [1]) was “equivalence of the two methods”.
